Data as given in PubChem BioAssay AID2305 (GlaxoSmithKline (GSK), 2010).

These compounds were tested on P. falciparum 3D7 growth, pLDH absorbance (assay: P. falciparum 3D7 growth inhibition, dose response, strain 3D7 (AID 2305)).
For `CC(C)(CNC(=O)[C@@H]1CCCCN1)c1nc(-c2ccc(Cl)c(O)c2)c(-c2ccncc2)[nH]1`, the IC50 was 840 nM. `NCCCNc1nc(Nc2ccc(C(F)(F)F)cc2F)c2c(=O)[nH]ccc2n1` showed an IC50 of 1050 nM. `C=C[C@H]1CN2CC[C@H]1C[C@@H]2[C@@H](O)c1ccnc2ccc(OC)cc12` was tested, and the IC50 was 120 nM. Work on `Oc1cc(Nc2ccnc3ccc(I)cc23)c(F)cc1Cl` yielded an IC50 of 1230 nM. Work on `O=C1NC(C(=O)Nc2ccccc2)C(c2ccccc2)S1` (centres undefined) yielded an IC50 of 170 nM. In the case of `Cc1cc(NC(=O)Nc2cccc(C#N)c2)c2ccccc2n1`, the IC50 is reported as 580 nM. `O=C(Nc1cccc(Cl)c1Cl)N[C@H]1CCN(CCCCCNC(=O)[C@@H]2C[C@H]2c2ccc(Cl)c(Cl)c2)C1` gave an IC50 of 1280 nM. `CN(C)CCN(C)C(=O)c1cc(-c2ccncc2)c(-c2ccc(Cl)c(O)c2)o1` gave an IC50 of 1050 nM. With `O=C(Nc1ccc(-c2nc3ccccc3[nH]2)cc1)C1CCCN(C2CCC2)C1` (centres undefined) the IC50 was 1350 nM. In the case of `CC(C)c1ccc(CN2CCCCC(NC(=O)c3cc(-c4ccccc4F)cs3)C2)cc1` (centres undefined), the IC50 is reported as 670 nM. `COc1ccccc1NC(=O)Nc1ccc(-c2ccc(-c3nc4ccc(C(F)(F)F)cc4[nH]3)cc2)cc1` showed an IC50 of 540 nM. In the case of `Cc1ccc(Cn2ncc(N3CCCNCC3)c(Cl)c2=O)cc1NC(=O)Nc1ccc(-c2ccccc2)cc1`, the IC50 is reported as 630 nM. Compound `Cc1cccc(CNc2nc(C)cc(NCCC(=O)NCCOc3ccccc3)n2)c1` has an IC50 of 870 nM. In the case of `N#CCCN1CCN(Cc2cccc(-c3ccc(-c4nc5ccc(C(F)(F)F)cc5[nH]4)cc3)c2)CC1`, the IC50 is reported as 740 nM. `COc1cc(SC)ccc1C(=O)N1CC(C)CC(C)C1` (centres undefined) showed an IC50 of 350 nM. `FC(F)(F)c1ccc2nc(-c3ccc(-c4cccc(CN5CCN(CCN6CCOCC6)CC5)c4)cc3)[nH]c2c1` was tested, and the IC50 was 160 nM. In the case of `CCCCCCCCCC(=O)NCC1CC(Br)=NO1` (centres undefined), the IC50 is reported as 1050 nM. `CCCNCc1ccc(-c2ccc(CN(CCOC)C(=O)c3cccc(C#N)c3)cc2)nc1` was tested, and the IC50 was 1230 nM. Compound `O=C(N[C@H]1CCN(CCc2ccc(O[C@H]3CCNC3)c(F)c2)C1)c1ccc(Cl)c(Cl)c1` has an IC50 of 1190 nM. For `Fc1ccc2nc(-c3cccc(-c4ccc(CN5CCN(CCN6CCOCC6)CC5)cc4)c3)[nH]c2c1`, the IC50 was 310 nM. `FC(F)(F)COc1ccc(CNCCCCCCNCc2ccc(OCC(F)(F)F)c3ccccc23)c2ccccc12` was tested, and the IC50 was 400 nM. Work on `Cc1cc(N[C@@H](Cc2ccccc2)C(=O)NCc2cccc(F)c2)nc(NCCc2ccc(F)cc2)n1` yielded an IC50 of 650 nM. For `COc1ccc(N2CCN(CCCCNC(=O)c3ccc(NC(=O)c4ccc(OC(F)(F)F)cc4)cc3)CC2)c(OC)c1`, the IC50 was 580 nM. `CN(Cc1cc(C(F)(F)F)cc(C(F)(F)F)c1)C(=O)[C@H]1CNC[C@@H]1c1ccc(F)cc1` was tested, and the IC50 was 830 nM. Work on `COc1ccc2cc(C(C)NC3CCN(c4cccc(NC(=O)c5ccncc5)c4)CC3)ccc2c1` (centres undefined) yielded an IC50 of 1550 nM. `CCOC(=O)c1cnc2c(OC)cc(OC)c(Cl)c2c1Nc1cccc(C)c1C` gave an IC50 of 310 nM. Work on `O=[N+]([O-])c1cccc(C=NNc2ccnc3cc(F)ccc23)c1` yielded an IC50 of 910 nM. `O=S(=O)(NCCCN1CCOCC1)c1ccc2nccc(Nc3ccc(Oc4ccccc4)cc3)c2c1` showed an IC50 of 850 nM. Work on `COc1ccc2cc(CNCCCCCCNCc3ccc4cc(OC)ccc4c3)ccc2c1` yielded an IC50 of 620 nM. Work on `c1cc(-c2ccc(CNC3CC3)cc2)cc(-c2nc3ccccc3[nH]2)c1` yielded an IC50 of 1660 nM. `COc1cccc(C2CCN(CCN3CCC(NC(=O)c4ccc(-c5ccc(C#N)cc5)cc4)CC3)CC2)c1` gave an IC50 of 700 nM. `CN1CCCc2ccc(NC(=O)C=Cc3ccc(-c4ccc(F)cc4F)o3)cc2C1` was tested, and the IC50 was 520 nM. Compound `O=C(/C=C/c1ccccc1)N1CCOC(CCN2CCC(c3ccccc3)CC2)(c2ccc(Cl)c(Cl)c2)C1` (centres undefined) has an IC50 of 520 nM. `CCNc1cc(C(=O)N[C@@H](Cc2ccccc2)[C@H](O)CNC2(CC)CCCCC2)cc(N2CCCCS2(=O)=O)c1` was tested, and the IC50 was 270 nM. `Cc1cc(C2CCN(CCCCNC(=O)c3ccc(NC(=O)c4ccc(Cl)cc4)cc3)CC2)c(C)cc1OC(C)C` gave an IC50 of 740 nM. `CCCn1c(Sc2ccc(C#N)c([N+](=O)[O-])c2)nnc1-c1ccc(N(C)C)cc1` showed an IC50 of 130 nM. Compound `CCN(CC)CCN(Cc1ccc(-c2ccc(C(F)(F)F)cc2)cc1)C(=O)Cn1c(CCc2c(F)cccc2F)nc(=O)c2ccccc21` has an IC50 of 640 nM. `COc1ccc(NC(=O)/C=C/c2ccc(-c3ccc(-c4noc(C)n4)cc3)cc2)cc1OCCN(C)C` showed an IC50 of 1370 nM. Work on `COc1ccc(C2CC(c3cccs3)=NN2C(=O)c2ccccc2)cc1OC` (centres undefined) yielded an IC50 of 660 nM. `O=C(c1ccc(Cl)cc1)C1CCCN(C2CCN(CCc3ccccc3)CC2)C1` (centres undefined) gave an IC50 of 1450 nM. `Cc1cc2c(NC(=O)NC3CCN(CCc4cccc(Cl)c4)CC3)cccc2cn1` was tested, and the IC50 was 370 nM. `COc1ccc(NC(=O)[C@H](Cc2ccccc2)Nc2cc(C)nc(NCCOc3ccccc3)n2)cc1` showed an IC50 of 1070 nM. For `COc1cc(CN2CCC(N3CCc4cc(NC(=O)c5cc(C)on5)ccc43)C2)ccc1F` (centres undefined), the IC50 was 610 nM. `CCCCCN1CCC(NS(=O)(=O)c2ccc(C(=O)Nc3cccc(C(F)(F)F)c3)cc2)C1` (centres undefined) was tested, and the IC50 was 1000 nM. With `CCCCCCNC(=O)c1nn(CCN2CCC(N3CCCC3)CC2)cc1-c1ccc(Cl)c(Cl)c1` the IC50 was 730 nM. In the case of `CNCc1ccc(CN(C)c2nc(N)c3cc(OC)c(OC)cc3n2)cc1`, the IC50 is reported as 1030 nM. Compound `FC(F)(F)c1ccc2nc(-c3ccc(-c4cccc(CN5CCN(c6ccncc6)CC5)c4)cc3)[nH]c2c1` has an IC50 of 120 nM. Work on `CCCCCN1CCCCC(NS(=O)(=O)c2ccc(C(=O)Nc3cccc(C(F)(F)F)c3)cc2)C1` (centres undefined) yielded an IC50 of 750 nM. In the case of `CCOC(=O)c1ccc(-n2c(C)cc(C=C3SC(=Nc4ccccc4)N(C4CCCC4)C3=O)c2C)cc1`, the IC50 is reported as 1170 nM.
